Assay results published in patent publication US11254696B2, “Dianilinopyrimidine compound for inhibiting kinase activity” (Shenzhen Targetrx, Inc., priority 2017, dated 2022).

Tests used:
ALK [WT] = ALK [WT] (Homo sapiens, UniProt Q9UM73); assay: Kinase inhibition assay, ALK [WT]; format: biochemical
Method: (§1) Compound preparation: The test compounds were dissolved in DMSO to make 20 mM stock solutions. The compounds were diluted in DMSO to 0.1 mM (a dilution with 100 times the final concentration) before use, and a 3-fold series gradient dilution with 11 concentrations was made. Dilutions with 4 times of the final concentration were prepared by diluting with buffer when dosing.
(§2) Kinase assay: after preparing the buffer solution, the enzyme was mixed with pre-diluted compounds with different concentrations, and placed at room temperature for 30 minutes in duplicate. The corresponding substrate and ATP were added thereto and reacted at room temperature for 60 minutes (both a negative and a positive control were set). After the reaction, antibody was added for detection, and after incubation at room temperature for 60 minutes, Evnvision detection was carried out, and data was collected. Data was analyzed and fit according to XLfit5 software. IC50 was calculated by the following formula: (IC50=[(ABS test−ABS begin)/(ABS control−ABS begin)]×100).

ALK [L1196M] = ALK [L1196M] (Homo sapiens, UniProt Q9UM73, L1196M); assay: Kinase inhibition assay, ALK [L1196M]; format: biochemical
Method: as §1, §2

BaF3 parental = assay: Cytotoxicity test (CellTiter-Glo), BaF3 parental; format: cell-based; settings: Mus musculus, 72 hours, read-out: IC50(nM) parental (Ba/F3)
Method: (§3) The in vitro anti-proliferative activity of the compounds of the present disclosure against three types of cells that are cultured in vitro was tested by CellTiter-Glo method.
(§4) Cell lines: BaF3 parental; BaF3 [EML4-ALK] (From WuXi PharmaTech) and BaF3 [EMF4-AFK F1196M] (From WuXi PharmaTech); wherein, BaF3 parental was cultured in RPMI1640 medium containing 10 ng/ml IL-3, 10% fetal bovine serum, 100 U/ml penicillin, and 100 μg/ml streptomycin, BaF3 [EMF4-AFK] and BaF3 [EMF4-AFK F1196M] were cultured in RPMI1640 medium containing 10% fetal bovine serum, 100 U/ml penicillin, and 100 μg/ml streptomycin.
(§5) Reagents and materials: RPMI-1640 (GIBCO, Cat. No. A10491-01); fetal bovine serum (GIBCO, Cat. No. 10099141); 0.25% trypsin-EDTA (GIBCO, Cat. No. 25200); penicillin-streptomycin, liquid (GIBCO, Cat. No. 15140-122); DMSO (Sigma, Cat. No. D2650); CellTiter-Glo Test Kit (Promega, Cat. No. G7572), and 96-well plate (Corning, Cat. No. 3365).
(§6) 1. The test compounds were dissolved in DMSO to make stock solutions and subjected to a series gradient dilution to give solutions with 10-fold working concentration.
(§7) 2. The cells in the logarithmic growth phase were diluted with the culture solution to adjust to the specific cell concentration, 90 μi of cell suspension was added to the 96-well plate to make the cell density reach the specified concentration. The plate was incubated in a incubator at 37° C., containing 5% carbon dioxide gas overnight.
(§8) 3. 10 μl drug solutions were added to each well of the 96-well plate inoculated with cells. 10 concentrations of the compounds were tested starting from the highest concentration of 20 μM with a 3-fold series gradient dilution in duplicate.
(§9) 4. After continuously cultured for 72 hours, the cells were detected by CellTiter-Glo for the cell viability. The dose-effect curve was made using GraphPad Prism software and IC50 was calculated.

BaF3 [EML4-ALK] [1] = molecular target: T1, BaF3 [EML4-ALK] (Homo sapiens, UniProt Q9UM73); assay: Cytotoxicity test (CellTiter-Glo), BaF3 [EML4-ALK]; format: cell-based; settings: 72 hours, CellTiter-Glo; read-out: IC50(nM) ALK (Ba/F3)
T1 construct: IC50(nM) ALK (Ba/F3); other: 72 hours, CellTiter-Glo; BaF3 [EML4-ALK]; fused on or other part: Q9HC35 (Echinoderm microtubule-associated protein-like 4)
Method: as §3, §4, §5, §6, §7, §8, §9

BaF3 [EML4-ALK] [2] = assay: Cytotoxicity test (CellTiter-Glo), BaF3 [EML4-ALK]; format: cell-based; settings: Ba/F3 cells
Method: as §3, §4, §5, §6, §7, §8, §9

ALK[L1196M] (Ba/F3) [3] = molecular target: T2, ALK[L1196M] (Ba/F3) (Homo sapiens, UniProt Q9UM73, L1196M, cells depend on it); assay: Cytotoxicity test (CellTiter-Glo), BaF3 EML4-ALK L1196M; format: cell-based; settings: 72 hours, CellTiter-Glo; read-out: IC50(nM) ALK[L1196M] (Ba/F3)
T2 construct: IC50(nM) ALK[L1196M]; (Ba/F3); other: 72 hours, CellTiter-Glo; BaF3 [EMF4-AFK F1196M]; fused on or other part: Q9HC35 (Echinoderm microtubule-associated protein-like 4)
Method: as §3, §4, §5, §6, §7, §8, §9

ALK[L1196M] (Ba/F3) [4] = assay: as above; format: cell-based; settings: Ba/F3 cells
Method: as §3, §4, §5, §6, §7, §8, §9

[5] = Metabolic stability in human liver microsomes; format: in vitro ADME; settings: pH 7.4, 1 μM compound, 0.5 mg/mL protein; for microsomal CLint at 1 μM: read-out: CLint (uL/min/mg), Human liver microsome experiment; for half-life at 1 μM: read-out: t1/2 (min), Human liver microsome experiment
Method: (§10) Experiments in microsomes: Human liver microsomes: 0.5 mg/mL, Xenotech; Rat liver microsomes: 0.5 mg/mL, Xenotech; Coenzyme (NADPH/NADH): 1 mM, Sigma Life Science; Magnesium chloride: 5 mM, 100 mM phosphate buffer (pH 7.4).
(§11) Preparation of stock solution: Powder of the example compounds was accurately weighed and dissolved in DMSO to 5 mM. Preparation of phosphate buffer (100 mM, pH7.4): A pre-formulated 0.5M potassium dihydrogen phosphate (150 mL) was mixed with 0.5M dibasic potassium phosphate (700 mL). The pH of the mixture was adjusted to 7.4 with 0.5M dibasic potassium phosphate solution. The mixture was diluted 5-fold with ultrapure water before use, and magnesium chloride was added to obtain a phosphate buffer (100 mM) containing 100 mM potassium phosphate, 3.3 mM magnesium chloride, pH7.4. A NADPH regeneration system solution (containing 6.5 mM NADP, 16.5 mM G-6-P, 3 U/mL G-6-PD, 3.3 mM magnesium chloride) was prepared and placed on wet ice prior to use. Preparation of stop solution: acetonitrile solution containing 50 ng/mL propranolol hydrochloride and 200 ng/mL tolbutamide (internal standard). 25057.5 μL of phosphate buffer (pH 7.4) was taken into a 50 mL centrifuge tube, to which 812.5 μL human liver microsomes were added, and mixed to obtain a liver microsome dilution solution with a protein concentration of 0.625 mg/mL. 25057.5 μL of phosphate buffer (pH 7.4) was taken into a 50 mL centrifuge tube, to which 812.5 μL SD rat liver microsomes were added, and mixed to obtain a liver microsome dilution solution with a protein concentration of 0.625 mg/mL.
(§12) Incubation of the samples: The stock solution of the respective compound was respectively diluted to 0.25 mM with an aqueous solution containing 70% acetonitrile, and used as a working solution, ready for use. 398 μL of the dilution solution of human liver microsomes or rat liver microsome were added to a 96-well incubation plate (N=2), respectively, and 2 μL of 0.25 mM working solution was added and mixed.
(§13) Metabolic stability assay: 300 μL of pre-chilled stop solution was added to each well of a 96-well deep well plate and placed on ice as a stop plate. The 96 well incubation plate and NADPH regeneration system were placed in a 37° C. water bath box, shaken at 100 rpm and pre-incubated for 5 min. 80 μL of incubation solution was taken out from each well of the incubation plate and added to the stop plate, mixed, and replenished with 20 μL of NADPH regeneration system solution as a 0-min sample. 80 μL of NADPH regeneration system solution was added to each well of the incubation plate to start the reaction and start counting. […] Separately, 100 μL of the reaction solution was taken at 10, 30, and 90 min reaction, respectively, added to a stop plate, and vortexed for 3 minutes to terminate the reaction. The stop plate was centrifuged at 5000×g at 4° C. for 4 min. 100 μL of the supernatant was added to a 96-well plate to which 100 μL of distilled water was previously added, mixed, and analyzed by LC-MS/MS.
(§14) Data analysis: The peak areas of the corresponding compound and internal standard were detected by LC-MS/MS system, and the ratio of the peak area of the compound to the internal standard was calculated.

[6] = Metabolic stability in rat liver microsomes; format: in vitro ADME; settings: SD, pH 7.4, 1 μM compound, 0.5 mg/mL protein; for microsomal CLint at 1 μM: read-out: CLint (uL/min/mg), Rat liver microsome experiment; for half-life at 1 μM: read-out: t1/2 (min), Rat liver microsome experiment
Method: as §10, §11, §12, §13, §14

T2 sequence (Q9UM73 whole entry L1196M, the tested form may be a part): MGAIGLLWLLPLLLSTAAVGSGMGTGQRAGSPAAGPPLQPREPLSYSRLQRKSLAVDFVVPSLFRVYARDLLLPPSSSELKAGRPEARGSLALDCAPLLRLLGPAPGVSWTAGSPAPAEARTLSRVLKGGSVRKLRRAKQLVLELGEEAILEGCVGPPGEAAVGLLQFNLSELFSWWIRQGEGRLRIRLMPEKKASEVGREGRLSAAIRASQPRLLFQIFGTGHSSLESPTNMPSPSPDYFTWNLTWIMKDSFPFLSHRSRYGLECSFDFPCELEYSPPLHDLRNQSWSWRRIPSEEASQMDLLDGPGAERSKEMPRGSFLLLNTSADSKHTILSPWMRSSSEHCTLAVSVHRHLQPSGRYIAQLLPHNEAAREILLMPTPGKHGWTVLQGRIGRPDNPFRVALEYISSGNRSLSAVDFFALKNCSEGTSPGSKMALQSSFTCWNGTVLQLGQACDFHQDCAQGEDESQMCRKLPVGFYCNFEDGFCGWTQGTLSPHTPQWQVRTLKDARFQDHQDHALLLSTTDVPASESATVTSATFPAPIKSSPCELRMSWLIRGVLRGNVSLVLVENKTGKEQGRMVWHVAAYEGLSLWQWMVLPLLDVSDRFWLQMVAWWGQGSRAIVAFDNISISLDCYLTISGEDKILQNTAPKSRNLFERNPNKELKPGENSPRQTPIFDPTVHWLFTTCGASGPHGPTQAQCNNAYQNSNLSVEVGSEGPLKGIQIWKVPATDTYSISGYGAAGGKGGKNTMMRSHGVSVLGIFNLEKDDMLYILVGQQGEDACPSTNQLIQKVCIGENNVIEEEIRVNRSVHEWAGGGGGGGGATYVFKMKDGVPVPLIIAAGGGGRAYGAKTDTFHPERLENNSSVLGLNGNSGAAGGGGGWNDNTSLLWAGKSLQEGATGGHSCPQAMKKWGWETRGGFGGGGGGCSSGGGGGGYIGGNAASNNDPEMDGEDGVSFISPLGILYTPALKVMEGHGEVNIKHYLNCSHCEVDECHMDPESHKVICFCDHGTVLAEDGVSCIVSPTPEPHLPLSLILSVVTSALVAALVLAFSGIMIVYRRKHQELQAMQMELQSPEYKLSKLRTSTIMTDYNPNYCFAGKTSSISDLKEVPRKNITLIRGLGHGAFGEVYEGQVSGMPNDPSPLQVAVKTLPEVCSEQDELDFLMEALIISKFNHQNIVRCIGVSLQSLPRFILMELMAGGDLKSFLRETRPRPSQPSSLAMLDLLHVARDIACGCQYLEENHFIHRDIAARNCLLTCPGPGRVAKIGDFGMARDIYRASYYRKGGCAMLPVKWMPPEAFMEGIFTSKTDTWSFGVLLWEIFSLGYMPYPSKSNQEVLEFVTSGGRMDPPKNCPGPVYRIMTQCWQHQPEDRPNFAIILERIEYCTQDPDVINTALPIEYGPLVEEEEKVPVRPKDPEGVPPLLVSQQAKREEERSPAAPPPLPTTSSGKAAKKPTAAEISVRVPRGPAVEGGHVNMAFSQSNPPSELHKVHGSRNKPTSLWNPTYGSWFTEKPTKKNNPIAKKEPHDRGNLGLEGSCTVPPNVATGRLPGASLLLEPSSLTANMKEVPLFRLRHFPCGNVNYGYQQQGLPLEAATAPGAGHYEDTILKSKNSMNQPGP
Chain of ALK [L1196M] (Q9UM73 19-1620 L1196M): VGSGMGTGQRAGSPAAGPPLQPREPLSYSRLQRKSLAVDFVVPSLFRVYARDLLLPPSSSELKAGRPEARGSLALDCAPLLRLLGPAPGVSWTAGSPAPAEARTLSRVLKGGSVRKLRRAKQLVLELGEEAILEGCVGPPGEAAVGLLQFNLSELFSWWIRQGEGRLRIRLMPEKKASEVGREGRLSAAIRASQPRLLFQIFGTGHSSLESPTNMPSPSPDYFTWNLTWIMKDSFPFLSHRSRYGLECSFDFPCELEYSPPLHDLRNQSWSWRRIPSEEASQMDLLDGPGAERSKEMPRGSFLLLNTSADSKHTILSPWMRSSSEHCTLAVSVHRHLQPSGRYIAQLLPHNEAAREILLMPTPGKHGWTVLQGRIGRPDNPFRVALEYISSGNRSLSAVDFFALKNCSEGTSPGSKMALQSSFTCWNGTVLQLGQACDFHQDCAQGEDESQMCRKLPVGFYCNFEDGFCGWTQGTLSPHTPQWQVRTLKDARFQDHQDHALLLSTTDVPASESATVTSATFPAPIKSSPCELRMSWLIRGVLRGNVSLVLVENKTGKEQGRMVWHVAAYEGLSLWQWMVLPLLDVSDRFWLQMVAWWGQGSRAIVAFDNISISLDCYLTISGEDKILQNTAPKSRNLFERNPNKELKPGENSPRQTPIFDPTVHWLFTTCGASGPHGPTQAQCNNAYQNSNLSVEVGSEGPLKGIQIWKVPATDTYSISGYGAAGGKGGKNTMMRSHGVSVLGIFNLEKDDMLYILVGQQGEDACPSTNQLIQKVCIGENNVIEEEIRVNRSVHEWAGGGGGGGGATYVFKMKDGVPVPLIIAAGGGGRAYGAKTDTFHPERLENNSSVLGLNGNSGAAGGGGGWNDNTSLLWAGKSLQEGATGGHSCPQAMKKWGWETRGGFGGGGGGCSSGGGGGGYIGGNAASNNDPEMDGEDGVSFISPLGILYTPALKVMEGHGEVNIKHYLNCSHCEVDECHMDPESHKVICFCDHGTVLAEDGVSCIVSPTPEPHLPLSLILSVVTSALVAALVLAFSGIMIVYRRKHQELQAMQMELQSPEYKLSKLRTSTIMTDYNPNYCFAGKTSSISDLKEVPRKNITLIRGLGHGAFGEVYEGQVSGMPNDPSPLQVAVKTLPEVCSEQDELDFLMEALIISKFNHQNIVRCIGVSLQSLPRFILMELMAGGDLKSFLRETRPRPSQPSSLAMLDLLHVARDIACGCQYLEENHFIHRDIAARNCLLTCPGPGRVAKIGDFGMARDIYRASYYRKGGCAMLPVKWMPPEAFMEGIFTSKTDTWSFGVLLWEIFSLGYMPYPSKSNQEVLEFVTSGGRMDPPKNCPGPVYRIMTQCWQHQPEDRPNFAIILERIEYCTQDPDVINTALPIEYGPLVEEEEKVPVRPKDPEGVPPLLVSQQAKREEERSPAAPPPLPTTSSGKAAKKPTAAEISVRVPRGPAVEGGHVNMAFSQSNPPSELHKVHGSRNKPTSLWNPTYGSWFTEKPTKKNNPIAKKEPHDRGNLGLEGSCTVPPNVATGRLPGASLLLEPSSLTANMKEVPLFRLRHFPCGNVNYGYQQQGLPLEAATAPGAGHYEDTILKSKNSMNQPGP
T1 sequence (Q9UM73 whole entry, change not shown, the tested form may be a part): as the sequence (Q9UM73 whole entry L1196M, the tested form may be a part) above, with M1196L counted along it
Chain of ALK [WT] (Q9UM73 19-1620): as the sequence (Q9UM73 19-1620 L1196M) above, with M1178L counted along it

| Compound | IC50 (ALK [WT]) [nM] | IC50 (ALK [L1196M]) [nM] | microsomal CLint at 1 μM [5] [µL/min/mg] | half-life at 1 μM [5] [min] | microsomal CLint at 1 μM [6] [µL/min/mg] | half-life at 1 μM [6] [min] | IC50 (BaF3 parental) [nM] | GI50 (BaF3 [EML4-ALK] [1]) [nM] | Selectivity parental/ALK (BaF3 [EML4-ALK] [2]) | GI50 (ALK[L1196M] (Ba/F3) [3]) [nM] | Selectivity parental/ALK[L1196M] (ALK[L1196M] (Ba/F3) [4]) |
| --- | --- | --- | --- | --- | --- | --- | --- | --- | --- | --- | --- |
| COc1cc(C(C)CN)ccc1Nc1ncc(Cl)c(Nc2ccccc2P(C)(C)=O)n1 (stereo not drawn) [Example 16, (2-((2-((4-(1-aminopropan-2-yl)-2-methoxyphenyl)amino)-5-chloropyrimidin-4-yl)amino)phenyl)dimethylphosphine oxide] | 5 to 10 | 5 to 10 | 21.5 | 64.6 | 11.7 | 118 | ≥ 1000 | 200 to 1000 | 50 to 100 | 200 to 1000 | <50 |
| COc1cc(C(C)CN(C)C)ccc1Nc1ncc(Cl)c(Nc2ccccc2P(C)(C)=O)n1 (stereo not drawn) [Example 17, (2-((5-chloro-2-((4-(1-(dimethylamino)propan-2-yl)-2-methoxyphenyl)amino)pyrimidin-4-yl)amino)phenyl)dimethylphosphine oxide] | 5 to 10 | 5 to 10 | 18.6 | 74.3 | 29.7 | 46.7 | ≥ 1000 | 25 to 50 | 100 to 200 | 100 to 200 | 50 to 100 |
| COc1cc(CCN(C)C)c(C)cc1Nc1ncc(Cl)c(Nc2ccccc2P(C)(C)=O)n1 [Example 20, (2-((5-chloro-2-((4-(2-(dimethylamino)ethyl)-2-methoxy-5-methylphenyl)amino)pyrimidin-4-yl)amino)phenyl)dimethylphosphine oxide] | 2 to 5 | 2 to 5 | 5.4 | 259 | 32.3 | 42.9 | ≥ 1000 | 25 to 50 | 50 to 100 | 25 to 50 | 50 to 100 |

Second part, led by results:

| IC50 (ALK [WT]) [nM] | IC50 (ALK [L1196M]) [nM] | microsomal CLint at 1 μM [5] [µL/min/mg] | half-life at 1 μM [5] [min] | microsomal CLint at 1 μM [6] [µL/min/mg] | half-life at 1 μM [6] [min] | Compound | IC50 (BaF3 parental) [nM] | GI50 (BaF3 [EML4-ALK] [1]) [nM] | Selectivity parental/ALK (BaF3 [EML4-ALK] [2]) | GI50 (ALK[L1196M] (Ba/F3) [3]) [nM] | Selectivity parental/ALK[L1196M] (ALK[L1196M] (Ba/F3) [4]) |
| --- | --- | --- | --- | --- | --- | --- | --- | --- | --- | --- | --- |
| ≤ 2 | ≤ 2 | 11.7 | 119 | 9.1 | 152 | COc1cc(C(C)(C)N)ccc1Nc1ncc(Cl)c(Nc2ccccc2P(C)(C)=O)n1 [Example 13, (2-((2-((4-(2-aminopropan-2-yl)-2-methoxyphenyl)amino)-5-chloropyrimidin-4-yl)amino)phenyl)dimethylphosphine oxide] | ≥ 1000 | 25 to 50 | <50 | 100 to 200 | <50 |
| ≤ 2 | 2 to 5 | 29.9 | 46.4 | 33.4 | 41.5 | COc1cc(C(C)(C)N(C)C)ccc1Nc1ncc(Cl)c(Nc2ccccc2P(C)(C)=O)n1 [Example 14, (2-((5-chloro-2-((4-(2-(dimethylamino)propan-2-yl)-2-methoxyphenyl)amino)pyrimidin-4-yl)amino)phenyl)dimethylphosphine oxide] | ≥ 1000 | < 25 | 100 to 200 | 50 to 100 | <50 |
| ≤ 2 | ≤ 2 | 20.7 | 66.9 | 17.6 | 78.8 | CNC(C)(C)c1ccc(Nc2ncc(Cl)c(Nc3ccccc3P(C)(C)=O)n2)c(OC)c1 [Example 15, (2-((5-chloro-2-((2-methoxy-4-(2-(methylamino)propan-2-yl)phenyl)amino)pyrimidin-4-yl)amino)phenyl)dimethylphosphine oxide] | ≥ 1000 | 50 to 100 | <50 | 100 to 200 | <50 |
